Experimental data reported in PubChem BioAssay (NCI).
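Five compound concentrations were applied to cells in 96-well plates for 48 hours; endpoints were derived by simple linear interpolation of the resulting dose-response curve. TGI is the concentration that stops growth completely.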

Assays:
Experiment in all cases: growth of human tumour cells (NCI), 48 h
[1] = test system: SNB-75 CNS
[2] = test system: UO-31 renal
[3] = test system: SK-MEL-28 melanoma
[4] = test system: SF-268 CNS
[5] = test system: CAKI-1 renal
[6] = test system: HOP-62 NSCLC
[7] = test system: NCI-H522 lung
[8] = test system: SF-539 CNS
[9] = test system: HCT-15 colon
[10] = test system: HCT-116 colon
[11] = test system: A498 renal
[12] = test system: MCF7 breast
[13] = test system: NCI-H226 lung

Compound | TGI [1] [µM] | TGI [2] [µM] | TGI [3] [µM] | TGI [4] [µM] | TGI [5] [µM] | TGI [6] [µM] | TGI [7] [µM] | TGI [8] [µM] | TGI [9] [µM] | TGI [10] [µM] | TGI [11] [µM] | TGI [12] [µM] | TGI [13] [µM]
CCCCCCCCCC(=O)NCCc1c[nH]c2ccc(OC)cc12 | 44 | 26.1 | 33.1 | 34.2 | 65.6 | 31.1 | 32.1 | 46 | 36.2 | 43.5 | 29.9 | 33.7 | 42.1
COc1ccc(/C=C2\C[C@H]3[C@@H]4CC=C5C[C@@H](OC(C)=O)CC[C@]5(C)[C@H]4CC[C@]3(C)C2=O)cc1OC | > 100 | 35.9 | > 100 | > 100 | > 100 | > 100 | > 100 | > 100 | > 100 | > 100 | > 100 | > 100 | > 100
COC(=O)CN=C1NC(=S)N(Cc2ccc(OC)cc2)C12CCCC2 | > 100 | > 100 | > 100 | > 100 | > 100 | > 100 | > 100 | > 100 | > 100 | > 100 | > 100 | > 100 | > 100
COC(=O)[C@H](C)NC(=O)C1(CNC(=O)[C@H](C)NC(=O)OC(C)(C)C)Cc2ccccc2-c2ccccc2C1 | > 60.2 | 11.6 | > 70.6 | 52.5 | > 39.6 | > 100 | 20.8 | > 58.1 | 31.1 | > 54.1 | > 71.1 | > 84.3 | 61.5
Cc1ccc(S(=O)(=O)NN=C2C(C)(C)CC2(C)C)cc1 | > 100 | > 100 | > 100 | > 100 | > 100 | > 100 | > 100 | > 100 | > 100 | > 100 | > 100 | > 100 | > 100
Cc1c2oc3c(C)cnc(C(=O)NC4C(=O)NC(C(C)C)C(=O)N5CCCC5C(=O)N(C)CC(=O)N(C)C(C(C)C)C(=O)OC4C)c3nc-2c(C(=O)NC2C(=O)NC(C(C)C)C(=O)N3CCCC3C(=O)N(C)CC(=O)N(C)C(C(C)C)C(=O)OC2C)c(N)c1=O (stereo not drawn) | 21.3 | 51 | 30.3 | 24.4 | 73 | > 57.7 | 18 | 17.7 | > 75 | > 35.5 | 29.8 | > 75 | 23.8
CC1(C)CCCC2CC2CCC(C)(C)C1=O (stereo not drawn) | > 100 | > 100 | > 100 | > 100 | > 100 | > 100 | > 100 | > 100 | > 100 | > 100 | > 100 | 75.8 | > 100
Brc1c2c(c(Br)c3nsnc13)N=S=N2 | 63.7 | 56.7 | > 70.7 | 75.4 | 40.4 | 15.9 | > 57.5 | 57.6 | 60 | > 69.2 | > 96.4 | > 65.6 | > 76.6
O=C(NNC(=S)Nc1ccc(Cl)cc1)C12CC3CC(CC(C3)C1)C2 | 51.1 | 19 | 60.8 | 32 | 49.5 | 29.7 | 20.2 | 14.3 | 42.5 | 9.26 | 22.9 | > 56.5 | 31.6
C=C[C@]1(C)CC(=O)C(C(C)C=O)[C@]12C(=O)Oc1cccc(C)c1C2=O (stereo partly drawn) | 30.8 | 28.9 | 29.2 | 43.3 | 27.6 | 35.9 | 18.2 | 31 | 28.3 | 20.6 | 71.1 | 32.7 | 35
CCN(CC)C(=S)/N=C(\SC(=S)N(CC)CC)c1ccccc1 | > 100 | > 88.2 | > 100 | > 100 | > 100 | > 83.2 | 3.39 | > 100 | > 100 | 20.9 | > 100 | > 100 | > 100
CC(=O)c1cc2c(s1)C(=O)c1ccsc1C2=O | 0.367 | 0.597 | 0.361 | 1.01 | 4.29 | 0.916 | 0.486 | 0.649 | 0.367 | 1.59 | 12.6 | 1.68 | 3.75
O=C(CC(Cc1ccccc1)c1ccc(Oc2ccccc2)cc1)Nc1cccc(Cl)c1 (stereo not drawn) | 56.6 | > 100 | > 100 | > 100 | > 100 | > 100 | 26.5 | > 100 | > 100 | > 100 | 26.3 | 18.3 | 73.2
O=C1C=CC(=O)c2c(O)c(NCCO)c(Cl)c(O)c21 | > 6.54 | > 10 | 3.65 | > 10 | > 10 | > 8.35 | > 10 | 5.73 | 6.47 | 3.55 | > 10 | 3.94 | > 10
O=S(=O)(O)c1ccc(Nc2ccnc3ccccc23)cc1 | > 100 | > 100 | > 100 | > 100 | > 100 | > 100 | > 100 | > 100 | > 100 | > 100 | > 100 | > 100 | > 100
CC(C)(C)C(O)CC(O)(C(F)(F)F)C(F)(F)F (stereo not drawn) | > 100 | > 100 | > 100 | > 100 | > 100 | > 100 | > 100 | > 100 | > 100 | > 100 | > 100 | > 100 | > 100
